Experimental data from patent publication US8536191B2 (priority 2010, dated 2013).
Read-outs that look alike come from different tables or passages of the source.

Assays:
[1] = Form conversion upon heating (VT-XRPD); assay type: physicochemical; conditions: before melting, HCl
Experimental: Variable-temperature X-ray powder diffraction (VT-XRPD) analysis was performed on a Shimadzu XRD-6000 X-ray powder diffractometer equipped with an Anton Paar HTK 1200 high temperature stage. The sample was packed in a ceramic holder and analyzed from 2.5 to 40°2θ at 3°/min (0.4 sec/0.02° step). The heating rate was 10° C./min. Cooling was done by shutting off the furnace. A silicon standard was analyzed to check the instrument alignment. Temperature calibration was performed using vanillin and sulfapyridine standards. Data were collected and analyzed using XRD-6100/7000 v. 5.0. In house software (Pattern Match, SSCI Inc., An Aptuit Company) was used to generate and edit the peak lists. The value of each peak position represents the value at the apex of the peak. In the tables which follow herein, the PXRD peak lists are presented for each solid form along with the conversion to ‘d’ value (assuming a mean Cu Kα wavelength of 1.5418 Å) and relative peak intensities scaled to 100. The relative intensity (“R.I.”) of each peak is shown, wherein Relative Intensity is the ratio of the height of each peak compared to the highest peak, which is designated as 100%.

[2] = Physical stability on drying at 60° C.; conditions: dried at 60° C.
[3] = Physical stability under mechanical stress (compression, grinding, milling), checked by X-ray powder diffraction; assay type: physicochemical
Experimental: The crystalline forms of nalbuphine HCl were identified by their powder X-ray diffraction (PXRD) peaks/pattern. PXRD analyses of crystalline Forms A, B, C, D, F, G, H, I, K and amorphous Form Z were performed using an Inel XRG-3000 diffractometer equipped with a CPS (Curved Position Sensitive) detector with a 2θ range of 120°. Real time data were collected using Cu—Kα radiation starting at approximately 4°2θ at a resolution of 0.03°2θ. The tube voltage and amperage were set to 40 kV and 30 mA, respectively. The monochromator slit was set at 5 mm by 160 μm. […] The sample was prepared for analysis by packing into a thin-walled glass capillary. The capillary was mounted onto a goniometer head that is motorized to permit spinning of the capillary during data acquisition. Instrument calibration was performed using a silicon reference standard.

Cl.Oc1ccc2c3c1O[C@H]1[C@@H](O)CC[C@@]4(O)[C@@H](C2)N(CC2CCC2)CC[C@]314 [Form D, nalbuphine HCl]
temperature of conversion to Form F upon heating [1]: about 180 °C

Cl.Oc1ccc2c3c1O[C@H]1[C@@H](O)CC[C@@]4(O)[C@@H](C2)N(CC2CCC2)CC[C@]314 [Form C, nalbuphine HCl]
form change at extremely high humidity (97% RH): converts to Form B (dihydrate) | temperature of conversion to Form F upon heating [1]: 200 °C

Cl.Oc1ccc2c3c1O[C@H]1[C@@H](O)CC[C@@]4(O)[C@@H](C2)N(CC2CCC2)CC[C@]314 [Form B, nalbuphine HCl]
physical stability when dried [2]: mostly converting to Form C (monohydrate) | physical stability when milled ([3]; milled, X-ray powder diffraction): physically unstable when milled, losing its crystallinity | temperature of conversion to Form F upon heating [1]: about 190 °C

Cl.Oc1ccc2c3c1O[C@H]1[C@@H](O)CC[C@@]4(O)[C@@H](C2)N(CC2CCC2)CC[C@]314 [Form F, nalbuphine HCl]
form change at extremely high humidity (85% RH): converts to Form B (dihydrate)

Cl.Oc1ccc2c3c1O[C@H]1[C@@H](O)CC[C@@]4(O)[C@@H](C2)N(CC2CCC2)CC[C@]314 [Form A]
form change at extremely high humidity (97% RH, hydrochloride): Form B (dihydrate) | form change under mechanical stress ([3]; compression or dry grinding): converting to Form C | effect of further grinding on crystallinity ([3]; further grinding, X-ray powder diffraction): some loss of crystallinity and formed partially amorphous material | form change under mechanical stress ([3]; wet grinding): Form B
